Read-outs that look alike come from different tables or passages of the source.

Data on 21 molecules can be found in patent US5583127A, “17-iminomethylalkenyl-5 β, 14 β-androstane and 17-iminoalkyl-5 β, 14 β-androstane derivatives active on the cardiovascular system, and pharmaceutical compositions containing same” (Sigma-Tau Industrie Farmaceutiche Riunite S.p.A., priority 1993, dated 1996).

The target of assay [1] is Na^+, K^+ -ATPase receptor (Homo sapiens, UniProt P05023). The assay can be described thus: displacement of the specific 3H-ouabain binding from the Na+,K+-ATPase receptor.
Assay [2] addresses purified Na^+,K^+ -ATPase (Homo sapiens, UniProt P05023). Briefly: inhibition of the activity of the purified Na+,K+-ATPase (% hydrolysis of 32P-ATP). It is filed as biochemical.
[3] abbreviates: displacement of specific 3H-ouabain binding, read-out: Binding ^3 H-Ouab. Displacement log IC50 (converted).
Where [4] appears, read: read-out: Inhibitory Activity log IC50 (converted).
Where [5] appears, read: purified Na+,K+-ATPase, read-out: Inhibitory Activity log IC50 (converted).

As to `C[C@]12CC[C@H](O)C[C@H]1CC[C@@H]1[C@@H]2CC[C@]2(C)[C@@H](/C=C/C=N\NC3=NCCN3)CC[C@]12O` [Comp. I-ad, 17β-[3-(Z)-(2-Imidazolin-2-yl)hydrazono-1-(E)-propenyl]-5β-androstane-3β,14β-diol], the IC50 in assay [1] was 631 nM.

Regarding `CN(C)CCON=CC[C@H]1CC[C@]2(O)[C@@H]3CC[C@@H]4C[C@H](O)CC[C@]4(C)[C@H]3CC[C@]12C` (mixture of isomers) [Comp. I-cm, (EZ)-17β-[2-(2-Dimethylaminoethoxyimino)ethyl]-5β-androstane-3α,14β-diol], the half-inhibitory concentration (IC50) is 100 nM in assay [1] (setting [3]) and 1000 nM in assay [2] (setting [4]).

Consider `CN(C)CCON=C/C=C/[C@H]1CC[C@]2(O)[C@@H]3CC[C@@H]4C[C@@H](OCCN5CCCC5)CC[C@]4(C)[C@H]3CC[C@]12C` (mixture of isomers) [Comp. I-by, 3β-[2-(1-Pyrrolidinyl)ethoxy]-17β-[3-(EZ)-(2-dimethylamino-ethoxyimino)-1-(E)-propenyl]-5β-androstane-14β-ol], for which the IC50 in assay [1] (setting [3]) was 20 nM; in assay [2] (setting [5]) it was 31.6 nM.

For the molecule `C[C@]12CC[C@H](O)C[C@H]1CC[C@@H]1[C@@H]2CC[C@]2(C)[C@@H](/C=C/C=N/NC(N)=O)CC[C@]12O` [Comp. I-ak, (E,E)-17β-(3-Semicarbazono)-1-propenyl-5β-androstane-3β,14β-diol], the IC50 in assay [1] (setting [3]) is 2000 nM; in assay [2] (setting [4]), 25100 nM.

With `CO/N=C/C=C/[C@H]1CC[C@]2(O)[C@@H]3CC[C@@H]4C[C@@H](O)CC[C@]4(C)[C@H]3CC[C@]12C` [Comp. I-an, (E,E)-17β-(3-Methoxyimino-1-propenyl)-5β-androstane-3β,14β-diol], the IC50 in assay [1] (setting [3]) is 2000 nM; in assay [2] (setting [5]), 20000 nM.

`CN(C)CCON=C/C=C/[C@H]1CC[C@]2(O)[C@@H]3CC[C@@H]4C[C@@H](OCCN)CC[C@]4(C)[C@H]3CC[C@]12C` (mixture of isomers) [Comp. I-cc, 3β-(2-Aminoethoxy)-17β-[3-(EZ)-(2-dimethylaminoethoxyimino)-1-(E)-propenyl]-5_62-androstane-14β-ol]: the IC50 in assay [1] (setting [3]) is 20 nM; in assay [2] (setting [5]), 31.6 nM.

For the molecule `C[C@]12CC[C@H](O)C[C@H]1CC[C@@H]1[C@@H]2CC[C@]2(C)[C@@H](/C=C/C=N/NC3=NCC(=O)N3)CC[C@]12O` [Comp. I-af, (E,E)-17β-[3-(5-Oxo-2-imidazolin-2-yl)hydrazono-1-propenyl]-5β-androstane-3β,14β-diol], the IC50 in assay [1] (setting [3]) was 2000 nM; in assay [2] (setting [5]), 39800 nM.

`C[C@]12CC[C@H](O)C[C@H]1CC[C@@H]1[C@@H]2CC[C@]2(C)[C@@H](/C=C/C=C/C=N/NC3=NCCN3)CC[C@]12O` [Comp. I-av, (E,E,E)-17β-[5-(2-Imidazolin-2-yl)hydrazono-1,3-pentadienyl]-5β-androstane-3β,14β-diol]: the IC50 in assay [1] (setting [3]) was 1000 nM; in assay [2] (setting [5]), 10000 nM.

Consider `C[C@]12CC[C@H](O)C[C@H]1CC[C@@H]1[C@@H]2CC[C@]2(C)[C@@H](/C=C/C=NOCCCNC(=N)N)CC[C@]12O` (mixture of isomers) [Comp. I-at, 17β-[3-(EZ)-(3-Guanidinopropoxyimino)-1-(E)-propenyl]-5β-androstane-3β,14β-diol], for which the IC50 in assay [1] (setting [3]) was 158 nM; in assay [2] (setting [5]) it was 316 nM.

With `C[C@]12CC[C@H](O)C[C@H]1CC[C@@H]1[C@@H]2CC[C@]2(C)[C@@H](/C=C/C=NOCCNC(=N)N)CC[C@]12O` (mixture of isomers) [Comp. I-as, 17β-[3-(EZ)-(2-Guanidinoethoxyimino)-1-(E)-propenyl]-5β-androstane-3β,14β-diol], the results for the IC50 in assay [1] and in assay [2] (setting [5]) were 100 nM and 158 nM, respectively.

As to `CN(C)CCON=C/C=C/[C@H]1CC[C@]2(O)[C@@H]3CC[C@@H]4C[C@@H](O)CC[C@]4(C)[C@H]3CC[C@]12C` (mixture of isomers) [Comp. I-aq, 17β-[3-(EZ)-(2-Dimethylaminoethoxyimino)-1-(E)-propenyl]-5β-androstane-3β,14β-diol], the IC50 in assay [1] (setting [3]) is 25.1 nM; in assay [2] (setting [5]), 31.6 nM.

As to `CN(C)CCON=CC[C@H]1CC[C@]2(O)[C@@H]3CC[C@@H]4C[C@@H](O)CC[C@]4(C)[C@H]3CC[C@]12C` (mixture of isomers) [Comp. I-bh, (EZ)-17β-[2-(2-Dimethylaminoethoxyimino)ethyl]-5β-androstane-3β,14β-diol], the IC50 in assay [1] (setting [3]) was 39.8 nM; in assay [2] (setting [5]), 631 nM.

Molecule `C[C@]12CC[C@H](O)C[C@H]1CC[C@@H]1[C@@H]2CC[C@]2(C)[C@@H](/C=C/C=N/NC3=NCCN3)CC[C@]12O` [Comp. I-ac, (E,E)-17β-[3-(2-Imidazolin-2-yl)hydrazono-1-propenyl]-5β-androstane-3β,14β-diol] gave an IC50 in assay [1] of 50.1 nM.

Take `CN(C)CCNC(=N)N/N=C/C=C/[C@H]1CC[C@]2(O)[C@@H]3CC[C@@H]4C[C@@H](O)CC[C@]4(C)[C@H]3CC[C@]12C` [Comp. I-ai, (E,E)-17β-{3-[3-(2-Dimethylaminoethyl)guanidinoimino]-1-propenyl}-5β-androstane-3β,14β-diol]: the IC50 in assay [1] (setting [3]) was 251 nM; in assay [2] (setting [4]), 3160 nM.

As for `C[C@]12CC[C@H](O)C[C@H]1CC[C@@H]1[C@@H]2CC[C@]2(C)[C@@H](CC=NNC3=NCCN3)CC[C@]12O` (mixture of isomers) [Comp. I-bd, (EZ)-17β-[2-(2-Imidazolin-2-yl)hydrazonoethyl]-5β-androstane-3β,14β-diol], the half-maximal inhibitory concentration (IC50) in assay [1] (setting [3]) was 126 nM; in assay [2] (setting [5]) it was 631 nM.

Consider `C[C@]12CC[C@H](O)C[C@H]1CC[C@@H]1[C@@H]2CC[C@]2(C)[C@@H](/C=C/C=C/C=N/NC3=NCCCN3)CC[C@]12O` [Comp. I-aw, (E,E,E)-17β-[5-(1,4,5,6-Tetrahydro-2-pyrimidinyl)hydrazono-1,3-pentadienyl]-5β-androstane-3β,14β-diol], for which, in assay [2] (setting [4]), the IC50 is 15800 nM.

Take `C[C@]12CC[C@H](O)C[C@H]1CC[C@@H]1[C@@H]2CC[C@]2(C)[C@@H](CCC=NNC3=NCCN3)CC[C@]12O` (mixture of isomers) [Comp. I-bj, (EZ)-17β-[3-(2-Imidazolin-2-yl)hydrazonopropyl]-5β-androstane-3β,14β-diol]: the half-inhibitory concentration (IC50) was 251 nM in assay [1] (setting [3]) and 3160 nM in assay [2] (setting [4]).

On to `C[C@]12CC[C@H](O)C[C@H]1CC[C@@H]1[C@@H]2CC[C@]2(C)[C@@H](CC=NOCCN)CC[C@]12O` (mixture of isomers) [Comp. I-bf, (EZ)-17β-[2-(2-Aminoethoxyimino)ethyl]-5β-androstane-3β,14β-diol], for which the IC50 in assay [1] (setting [3]) is 25.1 nM; in assay [2] (setting [5]) it was 316 nM.

For the molecule `CN1CCN=C1N/N=C/C=C/[C@H]1CC[C@]2(O)[C@@H]3CC[C@@H]4C[C@@H](O)CC[C@]4(C)[C@H]3CC[C@]12C` [Comp. I-ae, (E,E)-17β-[3-(1-Methyl-2-imidazolin-2-yl)hydrazono-1-propenyl]-5β-androstane-3β,14β-diol], the results for the IC50 in assay [1] and in assay [2] were 158 nM and 2510 nM, respectively.

Take `C[C@]12CC[C@H](O)C[C@H]1CC[C@@H]1[C@@H]2CC[C@]2(C)[C@@H](CCC=NOCCN)CC[C@]12O` (mixture of isomers) [Comp. I-bm, (EZ)-17β-[3-(2-Aminoethoxyimino)propyl]-5β-androstane-3β,14β-diol]: the IC50 in assay [1] (setting [3]) was 25.1 nM; in assay [2] (setting [5]), 79.4 nM.

For `C[C@]12CC[C@H](O)C[C@H]1CC[C@@H]1[C@@H]2CC[C@]2(C)[C@@H](/C=C/C=C/C=N/N=C(N)N)CC[C@]12O` [Comp. I-au], in assay [1] (setting [3]), the IC50 is 501 nM.

A word on the IC50: it is the concentration at which inhibition is half-maximal.
